According to patent US20240409556A1, “BENZOPIPERAZINE AND RELATED ANALOGS FOR INHIBITING YAP/TAZ-TEAD” (Springworks Therapeutics, Inc., priority 2023, published 2024):

What was measured:
Type in all cases: cell-based
[1] = tested on: YAP/TAZ-TEAD transcription; assay: Reporter gene assay for measuring the inhibition of YAP/TAZ-TEAD transcription (TEAD-responsive element luciferase reporter in Hek293T cells); settings: 24 hours incubation
Summary of the method: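 HEK293T cells transiently transfected with a TEAD-responsive luciferase reporter were exposed to compounds for 24 h at 37° C/5% CO2, then luminescence was read. Percent inhibition normalised to vehicle (0%) and positive-control inhibitor (100%); IC50 derived.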

[2] = tested on: NCI-H226 mesothelioma cell line; assay: Mesothelioma cell line proliferation assay, NCI-H226 (ATPlite); settings: Homo sapiens, 144 h; NCI-H226 cells, 6 days with compound, cell viability by ATPlite
Method: (§1) Example 57: Activity of Compounds of the Disclosure in Mesothelioma Cell Line Proliferation Assays
(§2) Mesothelioma cell lines, NCI-H226 and NCI-H2052 (both sourced from the ATCC cell culture collection) were plated in 96-well plates (Corning® 96 Well White Polystyrene Microplate clear flat bottom, white polystyrene (TC-Treated)), at 1500 cells/well in full medium (RPMI 1640 ATCC modification with L-glutamine, HEPES, Phenol Red, Sodium Pyruvate, High glucose, Low sodium bicarbonate and 10% fetal bovine serum). Cells were incubated overnight at 37° C. in an incubator with 5% CO2. Then compounds, dissolved in DMSO, were added in dose-response. Cells were incubated with compound dilutions for another 6 days at 37° C. in an incubator with 5% CO2. Cell viability was quantitated using the ATPlite kit (Perkin-Elmer) and the luminescence was read-out using an Envision instrument (Perkin-Elmer). The amount of relative light units produced using the ATPlite kit was used to calculate percent of inhibition.
(§3) The activities of some example compounds are depicted in Table 4. The activity ranges A, B and C refer to EC50 values in the mesothelioma cell line proliferation assay as described as follows: “A”: EC50<1 μM; “B”: 1 μM≤EC50≤10 μM and “C”: EC50>10 μM; NT: not tested.

[3] = tested on: NCI-H2052 mesothelioma cell line; assay: Mesothelioma cell line proliferation assay, NCI-H2052 (ATPlite); settings: Homo sapiens, 144 h; NCI-H2052 cells, 6 days with compound, cell viability by ATPlite
Method: as §1, §2, §3

| Compound | IC50 ([1]; Homo sapiens, HEK-293T, 24 h) | EC50 [2] | EC50 [3] | IC50 [1] |
| --- | --- | --- | --- | --- |
| CC(=O)N1CCN2c3ccccc3N(c3ccc(C(F)(F)F)cc3)CC2C1 (stereo not drawn) [compound 15, 1-(6-(4-(trifluoromethyl)phenyl)-1,2,4,4a,5,6-hexahydro-3H-pyrazino[1,2-a]quinoxalin-3-yl)ethan-1-one] | < 1 µM | < 1 µM | < 1 µM | – |
| C=CC(=O)NCC1CN(c2ccc(C(F)(F)F)cc2)c2ccccc2N1C (stereo not drawn) [compound 17, N-((1-methyl-4-(4-(trifluoromethyl)phenyl)-1,2,3,4-tetrahydroquinoxalin-2-yl)methyl)acrylamide] | < 1 µM | < 1 µM | < 1 µM | – |
| C=CC(=O)NCC1CN(c2ccc(C(F)(F)F)cc2)c2ccccc2N1 (stereo not drawn) [compound 22, N-((4-(4-(trifluoromethyl)phenyl)-1,2,3,4-tetrahydroquinoxalin-2-yl)methyl)acrylamide] | < 1 µM | < 1 µM | < 1 µM | – |
| CNS(=O)(=O)N1CCN2c3ccccc3N(c3ccc(C(F)(F)F)cc3)CC2C1 (stereo not drawn) [compound 32, N-methyl-6-(4-(trifluoromethyl)phenyl)-1,2,4,4a,5,6-hexahydro-3H-pyrazino[1,2-a]quinoxaline-3-sulfonamide] | < 1 µM | < 1 µM | < 1 µM | – |
| CC(=O)NCC1CN(c2ccc(C(F)(F)F)cc2)c2ccccc2N1 (stereo not drawn) [compound 34, N-((4-(4-(trifluoromethyl)phenyl)-1,2,3,4-tetrahydroquinoxalin-2-yl)methyl)acetamide] | – | < 1 µM | < 1 µM | < 1 µM |
| C=CC(=O)NCC1CN(c2ccc(C(F)(F)F)cc2)c2ccccc2O1 (stereo not drawn) [compound 35, N-((4-(4-(trifluoromethyl)phenyl)-3,4-dihydro-2H-benzo[b][1,4]oxazin-2-yl)methyl)acrylamide] | < 1 µM | < 1 µM | < 1 µM | – |
| CC(=O)NCC1CN(c2ccc(C(F)(F)F)cc2)c2ccccc2O1 (stereo not drawn) [compound 36, N-((4-(4-(trifluoromethyl)phenyl)-3,4-dihydro-2H-benzo[b][1,4]oxazin-2-yl)methyl)acetamide] | < 1 µM | < 1 µM | < 1 µM | – |
| C=CC(=O)N1CCN2C(=O)CN(c3ccc(C(F)(F)F)cc3)CC2C1 (stereo not drawn) [compound 37, 8-acryloyl-2-(4-(trifluoromethyl)phenyl)octahydro-4H-pyrazino[1,2-a]pyrazin-4-one] | < 1 µM | < 1 µM | < 1 µM | – |
| FC(F)(F)c1ccc(N2CCN(Cc3cnc[nH]3)c3ccccc32)cc1 [compound 51, 1-((1H-imidazol-5-yl)methyl)-4-(4-(trifluoromethyl)phenyl)-1,2,3,4-tetrahydroquinoxaline] | < 1 µM | < 1 µM | < 1 µM | – |
| FC(F)(F)c1ccc(N2CCN(Cc3cn[nH]c3)c3ccccc32)cc1 [compound 63, 1-((1H-pyrazol-4-yl)methyl)-4-(4-(trifluoromethyl)phenyl)-1,2,3,4-tetrahydroquinoxaline] | < 1 µM | < 1 µM | < 1 µM | – |
| CS(=O)(=O)N[C@@H]1C[C@@H]2CN(c3ccc(C(F)(F)F)cc3)c3cccnc3N2C1 [compound 85, N-((6aR,8R)-5-(4-(trifluoromethyl)phenyl)-5,6,6a,7,8,9-hexahydropyrido[3,2-e]pyrrolo[1,2-a]pyrazin-8-yl)methanesulfonamide] | < 1 µM | 1 to 10 µM | > 10 µM | – |
| CNS(=O)(=O)N[C@@H]1C[C@@H]2CN(c3ccc(C(F)(F)F)cc3)c3cccnc3N2C1 [compound 86, N-((6aR,8R)-5-(4-(trifluoromethyl)phenyl)-5,6,6a,7,8,9-hexahydropyrido[3,2-e]pyrrolo[1,2-a]pyrazin-8-yl), N′-methylsulfuric diamide] | < 1 µM | 1 to 10 µM | > 10 µM | – |
| O=C(O)[C@@H]1C[C@@H]2CN(c3ccc(C(F)(F)F)cc3)c3cccnc3N2C1 [compound 102, (6aR,8R)-5-(4-(trifluoromethyl)phenyl)-5,6,6a,7,8,9-hexahydropyrido[3,2-e]pyrrolo[1,2-a]pyrazine-8-carboxylic acid] | < 1 µM | < 1 µM | < 1 µM | – |
| CC(=O)N[C@@H]1C[C@@H]2CN(c3ccc(C(F)(F)F)cc3)c3ccc(C)nc3N2C1 [compound 107, N-((6aR,8R)-2-methyl-5-(4-(trifluoromethyl)phenyl)-5,6,6a,7,8,9-hexahydropyrido[3,2-e]pyrrolo[1,2-a]pyrazin-8-yl) acetamide] | < 1 µM | < 1 µM | < 1 µM | – |
